Experimental data as given in US9714245B2, “Carboline compounds usable in the treatment of neurodegenerative diseases” (ALZPROTECT, priority 2013, dated 2017).

Tests used:
AICD = assay: Quantification of AICD by Western blot in SY5Y-APPWT cells; assay type: cell-based, Human; details: compared to a control with a value of 100
Experimental: (§1) Quantifications of APP-CTFs and AICD
(§2) After treatment, SY5Y-APP^WT cells were scrapped and lysed in 1× Lysis Buffer (250 mM NaCl, 50 mM Tris, pH 8.8, 5 mM EDTA, 2.5% Triton X-100, 1% Deoxycholate, 0.1% SDS). For the Western blotting, an equal amount of total proteins (20 μg/lane) was loaded on a 16.5% Tris-Tricine or 8-16% Tris-Glycine polyacrylamide gel.
(§3) SDS-polyacrylamide gel electrophoresis (PAGE) was performed using the Criterion™ Tris-Tricine-precast or Bis-Tris-precast criterion gels (Bio-Rad Bioresearch division). Proteins were transferred to a […] nitrocellulose membrane (Hybond, Amersham Biosciences) at 2.5 mA/cm2 per gel using the Criterion™ Blotter system (Amersham Biosciences), according to the manufacturer's instructions. Proteins were reversibly stained with Ponceau Red in order to check the quality of the transfer of protein. The membranes were blocked in 25 mM Tris-HCl pH 8.0, 150 mM NaCl, 0.1% Tween-20 (v/v) and 5% (w/v) of skimmed milk for 30 min. Membranes were incubated overnight at 4° C. with appropriate dilution of the primary antibodies, and were incubated for 1 h at room temperature with secondary antibody. […] Quantifications were calculated with Image J software (NIH) and the data were collected using Excel Software (Microsoft). The loading variations between Western blot lanes were normalized according to the tubulin signal. Quantification of CTFα and AICD were compared to control conditions (considered as 100 in arbitrary units) and are presented for two concentrations of the drug: 1 and 10 μM.

sAPPα = assay: Soluble APPα quantification (ELISA); assay type: cell-based, Human; details: 24 h, control considered as 100
Experimental: Soluble APPα Quantification
Human neuroblastoma cell line SKNSH-SYSY APP′ was cultured in Dulbecco's modified Eagle medium (Invitrogen) supplemented with 10% fetal calf serum (PAA), 2 mM L-glutamine (Invitrogen), 1 mM non-essential amino acids (Invitrogen), 50 units/ml penicillin/streptomycin (Invitrogen), and 200 μg G418=geneticin (Invitrogen) (selection for cell expressing APP) in a 5% CO2 humidified incubator at 37° C. Cells were counted and seed at 400000 cells/well into a 12-wells plate for 24 h. The day after, cells were treated with 700 μL/well of drug at 0.3; 1; 3 and 10 μM and incubated for 24 h in a 5% CO2 incubator at 37° C. After treatment, culture medium samples were collected and stored at −80° C. until analysis. Samples corresponding to the 1 and 10 μM treatment were centrifuged 1500 rpm for 5 min at 4° C. sAPPα quantification by ELISA was done with Human sAPPα Assay Kit-IBL (Cat#27734) in accordance with manufacturer's protocol. Samples were diluted at 1:150 in the diluent buffer provided in the kit. Each sample was loaded in duplicate onto the 96 well-plate. Results are expressed in ng/ml and then compared to control conditions (considered as 100 in arbitrary units) and are presented for two concentrations of the drug: 1 and 10 μM.

secreted Aβ1-40 = assay: Aβ1-40 secretion by APP-transfected neuroblastoma cells (ELISA); assay type: cell-based; details: Homo sapiens, Neuroblastoma cell; SKNSH-SYSY APPWT cells; concentration decreasing secreted Aβ1-40 to 50% of basal amount
Experimental: (§4) Cell Cultures and Transfections to Test Activity on Aβ1-40 and Aβ1-42 Secretion
(§5) Human neuroblastoma cell line SKNSH-SYSY (ATCC® Catalog No. CRL-2266™), HEK (ATCC® CRL-1573™) and COS-1 (ATCC® CRL-1650™) cells were maintained in Dulbecco's modified Eagle medium (DMEM, GIBCO BRL) supplemented with 10% fetal calf serum, 2 mM L-glutamine, 1 mM non-essential amino acids, 50 units/ml penicillin/streptomycin (Invitrogen, France) in a 5% CO2 humidified incubator at 37° C. APP695 cDNA was subcloned into eukaryotic expression vector pcDNA3 (Invitrogen), allowing for a G418 (Invitrogen) selection of clones. This APP cDNA coding for the 695 amino acid long isoform was transfected into SKNSH-SYSY cells using the ethyleneimine polymer ExGen 500 (Euromedex) according to the manufacturer's instructions. The cells expressing APP (SKNSH-SYSY APP^WT) were selected by the addition of 200 μg/ml G418 in the cell medium. To quantify AR which released in the cell culture medium, the collected medium was spun at 200×g to eliminate the cell debris. The concentrations of secreted Aâ1-40 and Aβ1-42 were determined using the Human Aβ (1-40) Assay Kit (IBL) or the INNOTEST™ beta-Amyloid (1-42) ELISA Kit (Innogenetics), according to manufacturer's instructions. The results were expressed as IC50, i.e. the concentration able to decrease to 50% the basal amount of secreted Aβ peptide 1-40 and 1-42.

CTFα [1] = assay: In vivo chronic treatment, CTFα in brain tissue; parameters: species or system C57Bl6 mice; details: 12 weeks in drinking water, 3 mg/kg
Experimental: In Vivo Chronic Treatment
Female C57Bl6 mice of 4 month-old were treated with either vehicle (control) or drug at 1 and 3 mg/kg (n=10 per group) for 12 weeks in drinking water. First of all, all mice were weighted and distributed in each cage in order to have approximately the same average of weight±SD per cage. Each concentration of product as well as vehicule was prepared in sterile bottles and the bottles were kept at room temperature protected from light. The drinking bottles were filled weekly and weighted. Volume consumed was calculated by weighting each bottle after each week and the remaining volume was discarded. After 12 weeks, mice were sacrificed and their troncal blood was collected and stored at 4° C. Brains were immediately removed to dissect the Frontal Cortex, the Cortex around the Hippocampus and the Hippocampus. These areas were stored at −80° C. until use. Blood was then centrifuged at 2100×g for 5 min. Resulting plasma was used to quantify the circulating drug and brain tissues were used for biochemical determinations (PFC: prefrontal cortex and HIP: hippocampus).

[2] = Metabolic stability (method not described); details: comparative statement
secreted Aβ1-42 = assay: Aβ1-42 secretion by APP-transfected neuroblastoma cells (ELISA); assay type: cell-based; details: Homo sapiens, Neuroblastoma cell; SKNSH-SYSY APPWT cells; concentration decreasing secreted Aβ1-42 to 50% of basal amount
Experimental: as §4, §5

[3] = Cytotoxicity evaluation (MTS assay); assay type: cell-based, Human; details: human, SY5Y-APPWT neuroblastoma cells (expressing APP); SY5Y-APPWT cells, 24 h treatment, MTS
Experimental: (§6) Human neuroblastoma cell line SY5Y-APP^WT was used to assess the cytotoxic effects of each compound. SY5Y-APP^WT cells were seeded at 20000 cells/well onto 96-well plates and were cultured in Dulbecco's modified Eagle medium (DMEM, Invitrogen) supplemented with 10% fetal calf serum (PAA), 2 mM L-glutamine (Invitrogen), 1 mM non-essential amino acids (Invitrogen), 50 units/ml penicillin/streptomycin (Invitrogen), and 200 μg G418=geneticin (Invitrogen) (selection for cells expressing APP) in a 5% CO2 humidified incubator at 37° C. After 24 h, the cells were washed and incubated with the compound at 0.1; 0.3; 1; 3; 10; 30 and 100 μM or with DMSO as control diluted in the same culture medium at 37° C. in 5% CO2. After 24 h of treatment, cytotoxicity was determined by using colorimetric MTS assay (CellTiter 96® Aqueous One Solution Cell Proliferation Assay-MTS Promega) according to the protocol of the manufacturer. Absorbance was read at 490 nm and results were expressed as % from control condition considered as 100%.

SY5Y-APPWT cells = assay: Cytotoxicity evaluation (MTS assay); assay type: cell-based, Human; details: comparative statement
Experimental: as §6

CTFα [4] = assay: Quantification of APP-CTFα by Western blot in SY5Y-APPWT cells; assay type: cell-based, Human; details: compared to a control with a value of 100
Experimental: as §1, §2, §3

[5] = target: T1, HIS-tagged valosin-containing protein/p97 (VCP/p97) (Homo sapiens, UniProt P55072); assay: VCP interaction assay (competition with biotinylated probe 4.7); assay type: binding; details: compound 60 μM against biotinylated probe 4.7 20 μM
T1 construct: purchased TebuBio
T1 sequence (P55072 whole entry): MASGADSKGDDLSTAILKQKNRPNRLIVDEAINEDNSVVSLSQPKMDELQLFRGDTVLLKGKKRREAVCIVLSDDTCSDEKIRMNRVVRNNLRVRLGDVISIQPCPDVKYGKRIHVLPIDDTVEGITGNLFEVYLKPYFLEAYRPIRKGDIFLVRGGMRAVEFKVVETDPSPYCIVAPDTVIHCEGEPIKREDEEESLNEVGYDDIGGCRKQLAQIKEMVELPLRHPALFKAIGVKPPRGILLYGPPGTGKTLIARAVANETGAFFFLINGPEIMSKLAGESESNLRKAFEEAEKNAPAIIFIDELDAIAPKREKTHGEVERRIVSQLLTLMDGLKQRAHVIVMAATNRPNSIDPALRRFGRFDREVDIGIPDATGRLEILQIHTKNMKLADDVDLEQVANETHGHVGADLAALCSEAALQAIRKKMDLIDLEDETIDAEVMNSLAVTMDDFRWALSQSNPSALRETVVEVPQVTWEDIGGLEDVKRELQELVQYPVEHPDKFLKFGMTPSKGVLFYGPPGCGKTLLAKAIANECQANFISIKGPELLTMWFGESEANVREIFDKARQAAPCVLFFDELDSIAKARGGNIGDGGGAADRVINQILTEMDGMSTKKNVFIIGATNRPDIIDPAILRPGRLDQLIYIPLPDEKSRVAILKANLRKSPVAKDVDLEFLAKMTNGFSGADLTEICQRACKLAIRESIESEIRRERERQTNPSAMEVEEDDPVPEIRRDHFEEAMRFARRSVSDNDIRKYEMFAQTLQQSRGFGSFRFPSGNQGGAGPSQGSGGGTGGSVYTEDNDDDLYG
Experimental: Physical interaction between HIS-tagged valosin-containing protein/p97 (VCP/p97) (TebuBio) and biotinylated probe 4.7 was investigated by Enzyme-Linked Assay (ELA) based on HIS-Select® High Sensitivity Nickel coated plates, used following manufacturer's recommendations (Sigma Aldrich). Other chemical compounds were tested in competition with the biotinylated probe 4.7 in this system. Briefly, nickel beads were incubated overnight at 4° C. with 2% casein blocking solution. After a three-time rinse with wash buffer (0.05% Tween20 in phosphate buffer saline), HIS-tagged VCP/p97 protein (5 μg/ml in PBS) was incubated with nickel beads for 90 min at 25° C. Then, the plate was washed three times. Chemical compounds (60 μM) were incubated 10 min at 25° C. before addition of biotinylated probe 4.7 (20 μM) 30 min at 25° C. After five washes, streptavidin-peroxidase (2 μg/ml) was added during 1 h at 25° C., followed by the peroxidase substrate addition 30 min at RT. Reaction was stopped with 0.5M H2SO4 solution and the optical density was read at 450 nm using a microplate reader (VICTOR X4 Wallac, 2030-0040, PerkinElmer). Competition efficiency was quantified by the loss of signal compared to the control condition.

| IC50 (secreted Aβ1-40) [µM] | metabolic stability (in words) [2] | IC50 (secreted Aβ1-42) [µM] | VCP (competition efficiency, loss of signal compared to the control) [5] [%] | SMILES | AICD (10 μM) (AICD) [arbitrary units] | sAPPα (10 μM) (sAPPα) [arbitrary units] | increase of CTFα in hippocampus (HIP) (CTFα [1]) [%] | increase of CTFα in prefrontal cortex (PFC) (CTFα [1]) [%] | CC50 at 24 h [3] [µM] | toxicity (in words) (SY5Y-APPWT cells) | CTFα (10 μM) (CTFα [4]) [arbitrary units] |
| --- | --- | --- | --- | --- | --- | --- | --- | --- | --- | --- | --- |
| 3 | metabolically more stable | 1 |  | Fc1ccc2[nH]c3c(c2c1)CN(CCCN1CCN(CCCN2CCCC2)CC1)CC3 [Compound 3.1f, 8-Fluoro-2-{3-[4-(3-(pyrrolidin-1-yl)propyl)piperazin-1-yl]propyl}-2,3,4,5-tetrahydro-1H-pyrido[4,3-b]indole] | 1011 | 100 | 25 | 20 | > 100 | less toxic |  |
| > 10 |  | > 10 | 70 | CN(C)CCCN1CCN(CCCN2CCc3c([nH]c4ccccc34)C2)CC1 [Compound 3.2d, N,N-dimethyl-3-(4-(3-(1,3,4,9-tetrahydro-1H-beta-carbolin-2-yl)propyl)piperazin-1-yl)propylamine] | 41661 |  |  |  | > 100 |  | 1042 |
| 2.5 |  | 2 |  | CN(C)CCCN1CCN(CCCN2CCc3c([nH]c4ccccc34)C2c2ccccc2)CC1 (stereo not drawn) [Compound 3.2e, N,N-dimethyl-3-(4-(3-(1-phenyl-1,3,4,9-tetrahydro-1H-beta-carbolin-2-yl)propyl)piperazin-1-yl)propylamine] | 4765 |  |  |  | 12 |  | 234 |
